Test results reported in US20060287252A1, “Substances k01-0509 and process for producing the same” (priority 2004, published 2006).

Key:
Type in all cases: cell-based
[1] = test system: enteropathogenic E. coli E2348/69 (wild strain)
[2] = test system: Bacillus subtilis ATCC 6633; experiment: Antibiotic activity by paper disc method; conditions: 10 μg/disc, paper disc 6 mm, nutrient agar, 24 hours cultivation
[3] = test system: Micrococcus luteus ATCC 9341; experiment: Antibiotic activity by paper disc method; conditions: 10 μg/disc, paper disc 6 mm, nutrient agar, 24 hours cultivation
E. coli NIHJ = experiment: Antibiotic activity by paper disc method; conditions: 10 μg/disc, paper disc 6 mm, nutrient agar, 24 hours cultivation
[4] = test system: Xanthomonas campestris pv. oryzae KB88

Measured: inhibition zone

CC(NC(=O)C1NC(C)C(=O)NC1CCC(O)C(O)CC1CNC(=N)N1C(N)=O)C(=O)NC(C(=O)O)C(C)C (stereo not shown) [K01-0509-A1 substance]
no inhibition zone: all assays above

CC(NC(=O)C1NC(C)C(=O)NC1CCC(O)C(O)CC1CNC(=N)N1C(N)=O)C(=O)NC(C(=O)O)C(C)C (stereo not shown) [K01-0509-A2 substance]
no inhibition zone: [1] | [4]
